{"source": "patent US8039009B2", "about": "“Modified release formulations of memantine oral dosage forms” (priority 2004, dated 2011)", "test": "Powder testing of final blends for compression (flow and compression properties)", "type": "physicochemical", "experimental": "The powder properties of the final blends for compression were evaluated. During compression, excellent powder flow through the hopper was visually observed. The following Table presents the results of powder testing."}
{"smiles": "CC12CC3CC(C)(C1)CC(N)(C3)C2", "note": "[memantine, 1-amino-3,5-dimethyladamantane]", "values": [{"measurement": "flow and compression properties (in words)", "result": "poor flow properties"}, {"measurement": "Flowability Index", "setting": "powder", "result": 23.5}]}
